The structures appear in SMILES notation.

The nature of data set [1]: Changes of the oral mucosa on buccal or sublingual administration of estriol. In kind it is in vivo.
The nature of data set [2]: Estriol levels in the blood over time with the same treatment and dose. The data set is classed as in vivo. As to conditions: vaginal application. On the procedure:
Thus, even in the case of long-term use, there should be no unwanted absorption conditions at the oral mucosa as the application site that show a change for the worse, provided that the treatment of the climacteric complaints is carried out using a film-shaped medicament according to the invention.

In the case of `C[C@]12CC[C@@H]3c4ccc(O)cc4CC[C@H]3[C@@H]1C[C@@H](O)[C@@H]2O` [estriol, (16α, 17β)-estra-1,3,5(10)-triene-3,16,17-triol], the “changes of the oral mucosa analogous to proliferation and hornification of the upper cell layers in the vagina” value in data set [1] is “no changes of the oral mucosa”. Also, the “estriol levels in the blood after some time” value in data set [2] is given as “drop measurably after some time”.

Source of the values: US20070243217A1, “Film-Shaped Medicament for Oral Administration Containing Estriol” (HF Arzneimittelforschung GmbH, priority 2004, published 2007).
